“And” between values parts separate entries of the source, which are not always exact repeats. Equal values may be shown once. Records with an inconclusive call do not appear. The source made the active and inactive calls. The rule behind the calls is not given here.
Test system: Toxoplasma gondii growth in host cells, no IFN-gamma
Assay: T. gondii intracellular growth, IFN-gamma absent, dose response, cell-based (AID 1259420);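 note: host cells were HeLa; final incubation lasted 72 hours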

SMILES	AC50
CC(C)CNC(=O)c1nc2c(s1)CCN(C(=O)NCc1ccccc1)CC2	18.3 µM
COCCn1cc2c(n1)C(CNC(=O)CS(C)(=O)=O)OCC2 (stereo unspecified)	> 39 µM (inactive)
CCCNC(=O)N1[C@H](C#N)[C@H](c2ccc(-c3ccccc3F)cc2)[C@H]1CO	11.3 µM
Nc1ncnc2c1ncn2[C@@H]1O[C@H](C[C@@H](N)CC[C@H](N)C(=O)O)[C@@H](O)[C@H]1O	1.38 µM
Cc1cccc(-c2ccc(C3[C@@H]4CN(Cc5cccc(F)c5)C[C@H]3N4)cc2)c1 (stereo partly specified)	19.4 µM
COc1cccc(S(=O)(=O)N2CCCCN3[C@H](C2)[C@H](c2ccc(C#CCC(C)C)cc2)[C@@H]3CO)c1	11.9 µM and 15.5 µM
C/C=C/c1ccc(C2[C@H]3CNC[C@@H]2N3C(=O)NC2CCCCC2)cc1 (stereo partly specified)	13.3 µM
c1cnc(N2CCC(Oc3cnccn3)CC2)nc1	15.6 µM
O=C(c1cccn2c(-c3ccc(F)cc3)nnc12)N1CCC(O)(c2ccc(Cl)cc2)CC1	> 39 µM (inactive)
O=C(C[C@H]1CC[C@H]2[C@@H](COC[C@@H](O)CN2S(=O)(=O)c2ccccc2F)O1)N1CCC(Cc2ccccc2)CC1	> 20 µM (inactive)
CCCN1CCC[C@@H]2Cc3[nH]ncc3C[C@H]21	> 39 µM (inactive)
COc1cccc(S(=O)(=O)N2CCCCN3[C@H](CO)[C@H](c4ccc(-c5ccccc5)cc4)[C@H]3C2)c1	13.1 µM
CCc1cc(C(=O)Nc2ccc(C)cc2-c2cc(C)[nH]n2)c2c(C)noc2n1	18.2 µM
Cc1ccc(Nc2nc(N)nc(CN3CCc4ccccc4C3)n2)cc1	> 10 µM (inactive)
c1ccc2c(Oc3nc(Nc4ccc(N5CCOCC5)cc4)c4ncn(C5CCCCC5)c4n3)cccc2c1	12.7 µM
Cc1ccc(N(Cc2nc(-c3cccc(Cl)c3)oc2C)S(=O)(=O)c2cccs2)cc1	8.34 µM
COc1cccc(CNC(=O)c2cc3c(s2)CCN3C(=O)c2ccc(F)cc2)c1	2.74 µM
COc1ccccc1CN1CC[C@@H]2[C@H](CO)Nc3ccc(-c4cccc(C(=O)N(C)C)c4)cc3[C@@H]21	13.6 µM
Cc1ccccc1-c1ccc(C2[C@H]3CNC[C@@H]2N3Cc2ccc3c(c2)OCO3)cc1 (stereo partly specified)	> 20 µM (inactive)
CCc1c2c(nc3ccc(OC(=O)N4CCC(N5CCCCC5)CC4)cc13)-c1cc3c(c(=O)n1C2)COC(=O)[C@]3(O)CC	24.7 µM
CC(C)NC(=O)N1CC(=O)N2[C@@H](CO)[C@H](c3ccc(/C=C/c4ccccc4)cc3)[C@@H]2C1	> 39 µM (inactive)
CN(Cc1ccccn1)C(=O)C1=NOC2(CCN(S(=O)(=O)c3ccc(F)cc3)C2)C1 (stereo unspecified)	> 39 µM (inactive)

SMILES	AC50
O=S(=O)(c1ccccc1F)N1CCC(c2nc3ccc(-c4ccncc4)cn3n2)CC1	> 39 µM (inactive)
CC(C)C#Cc1ccc([C@H]2[C@@H](C#N)N(C(=O)c3cccc(F)c3)[C@@H]2CO)cc1	14.1 µM
Fc1cccc(CN2C[C@@H]3N[C@H](C2)C3c2ccc(/C=C/c3ccccc3)cc2)c1 (stereo partly specified)	17.6 µM
O=C(C[C@H]1C[C@@H]2CN(Cc3ccccc3)C[C@H]2O1)N1CCCCO1	> 39 µM (inactive)
COc1cccc(S(=O)(=O)N2CCCCN3[C@@H](CO)[C@H](c4ccc(C#CCC(C)C)cc4)[C@@H]3C2)c1	21.4 µM and 16.4 µM and 30.4 µM
O=C(Nc1ccc(F)cc1)N1C[C@@H]2N[C@H](C1)C2c1ccc(/C=C/c2ccccc2)cc1 (stereo partly specified)	9.87 µM
O=C(Nc1ccccc1F)N1C[C@@H]2N[C@H](C1)C2c1ccc(/C=C/c2ccccc2)cc1 (stereo partly specified)	18.6 µM
COc1cccc(-c2ccc3c(c2)[C@@H]2[C@@H](CCN2C(=O)c2ccccc2F)[C@H](CO)N3C)c1	8.81 µM and 10.2 µM
CCc1ccccc1S(=O)(=O)N1CCc2nc(-c3ccc(OC)cc3)sc2C1	4.35 µM
CCCC(C)c1c(-c2ccccc2)ncn1Cc1cnc(C)cn1 (stereo unspecified)	36.1 µM
COc1ccc(S(=O)(=O)N2CCCCN3[C@H](CO)[C@@H](c4ccc(C#CCC(C)C)cc4)[C@H]3C2)cc1	12.8 µM and 7.95 µM
COc1ccc(C#Cc2ccc([C@@H]3[C@@H](CO)N4C(=O)CN(C(=O)NC(C)C)C[C@@H]34)cc2)cc1	> 39 µM (inactive)
N#Cc1cccc(-c2ccc(C3[C@@H]4CN(C(=O)c5ccc6c(c5)OCO6)C[C@H]3N4)cc2)c1 (stereo partly specified)	> 39 µM (inactive)
O=C(c1ccc(F)cc1)N1CC(=O)N2[C@H](C1)[C@H](c1ccc(C#CCC3CCCC3)cc1)[C@@H]2CO	16.9 µM
O=S(=O)(c1ccccc1F)N1CC[C@H]2[C@H](CO)Nc3ccc(C4=CCCCC4)cc3[C@H]21	12.4 µM
CCCC#Cc1ccc([C@@H]2[C@H]3CN(C(=O)Nc4cccc(F)c4)CC(=O)N3[C@H]2CO)cc1	29.4 µM and 14.9 µM
CC(C)C#Cc1ccc([C@H]2[C@@H](CO)N3C(=O)CN(S(=O)(=O)c4ccccc4)C[C@H]23)cc1	> 39 µM (inactive)
N#Cc1cccc(-c2ccc3c(c2)[C@H]2[C@H](CCN2Cc2ccc4c(c2)OCO4)[C@H](CO)N3)c1	17.2 µM
O=C(CCCCCNc1nc(=S)[nH]c2ccccc12)N1CCC(O)(c2cccc(C(F)(F)F)c2)CC1	> 39 µM (inactive)
N#Cc1cccc(-c2ccc(C3[C@@H]4CN(C(=O)Nc5ccc(C(F)(F)F)cc5)C[C@H]3N4)cc2)c1 (stereo partly specified)	14.4 µM and 14.6 µM
COc1ccc(C#Cc2ccc([C@@H]3[C@H]4CN(C(=O)NC(C)C)CC(=O)N4[C@H]3CO)cc2)cc1	> 39 µM (inactive)
CCCCCCCCCCCCCCCC[N+](C)(C)C	15.3 µM

SMILES	AC50
Oc1[nH]c2ccccc2c1N=Nc1nc(Nc2ccccc2)nc(N2CCOCC2)n1	16.9 µM
Cc1ccc(S(=O)(=O)N2CC[C@@H]3[C@H]2c2cc(-c4cccc(C(=O)N(C)C)c4)ccc2N[C@@H]3CO)cc1	30.1 µM
COCCN1CCN(S(=O)(=O)c2ccccc2)Cc2cccnc21	31.1 µM
O=c1c(O)c(-c2ccc(O)c(O)c2)oc2cc(O)cc(O)c12	15.8 µM
CN1c2ccc(-c3ccccc3)cc2[C@H]2[C@H](CCN2C(=O)CC2CC2)[C@@H]1CO	25.4 µM
N#Cc1ccc(-c2ccc([C@@H]3[C@@H]4CN(S(=O)(=O)Cc5ccccc5)C[C@H]3N4)cc2)cc1	9.96 µM
O=C(NCCN1CCCC1)[C@H]1[C@H](CO)[C@H]2Cn3c(cccc3=O)[C@H]2N1Cc1ccccn1	> 39 µM (inactive)
CC(C)(C)OC(=O)Nc1cc(-c2cn[nH]c2C2CCCN(C(=O)OC(C)(C)C)C2)ccn1 (stereo unspecified)	> 20 µM (inactive)
CN(C[C@H]1[C@H](c2ccccc2)[C@@H](CO)N1CC1CC1)C(=O)c1ccc(F)cc1	> 39 µM (inactive)
O=S1(=O)c2ccccc2O[C@H]2CCN(Cc3ccc(Cl)cc3)CC[C@H]2N1CC1CC1	22.5 µM
OC[C@H]1O[C@@H](n2cnc3c(NC4CCCC4)nc(Cl)nc32)[C@H](O)[C@@H]1O	> 39 µM (inactive)
O=C(Cc1ccccc1)N1CC[C@H]2[C@H](CO)Nc3ccc(C4=CCCCC4)cc3[C@H]21	13.9 µM
N#Cc1cccc(-c2ccc(C3[C@@H]4CN(Cc5ccccc5)C[C@H]3N4)cc2)c1 (stereo partly specified)	13.1 µM
Cc1cccc(-c2ccc([C@@H]3[C@H](CO)N4CCCCN(S(=O)(=O)c5ccccc5F)C[C@@H]34)cc2)c1	19.7 µM
CCc1cnc(N2[C@H](C#N)[C@@H](c3ccc(C#Cc4ccccc4F)cc3)[C@@H]2CO)s1	16.3 µM
C[C@H](CO)N1C[C@H](C)[C@H](CN(C)C(=O)Nc2ccc(C(F)(F)F)cc2)Oc2c(NC(=O)c3ccc(-c4nccs4)cc3)cccc2C1=O	9.48 µM
CN(C)C(=O)c1cccc(-c2ccc3c(c2)[C@@H]2[C@@H](CCN2C(=O)Cc2ccccc2)[C@@H](CO)N3)c1	21.7 µM
CCCCCCC(C)(C)c1ccc(C2CC(O)CCC2CCCO)c(O)c1 (stereo unspecified)	17.9 µM
COc1ccccc1NC(=O)N1C[C@H](O)COC[C@@H]2O[C@@H](CC(=O)N3CCC(Cc4ccccc4)CC3)CC[C@H]21	> 39 µM (inactive)
CSCc1noc(CN2CCCC3(C2)CN(C)C(=O)O3)n1 (stereo unspecified)	> 39 µM (inactive)
Cc1ccccc1C(=O)N1CCC(N2CCOCC2)CC1C(=O)O (stereo unspecified)	> 39 µM (inactive)
COc1ccc(Cc2cnc(N)nc2N)cc1OC	25.8 µM

SMILES	AC50
CN(C[C@H]1N[C@@H](CO)[C@@H]1c1ccc(C2=CCCC2)cc1)C(=O)c1cccc(F)c1	3.41 µM and 4.45 µM
CCN(CC)CCO[C@H]1CC[C@@]2(C)C(=CC[C@@H]3[C@@H]2CC[C@]2(C)C(=O)CC[C@@H]32)C1	> 39 µM (inactive)
O=C(C[C@@H]1CC[C@@H]2[C@H](COC[C@@H](O)CN2Cc2ccc(Oc3ccccc3)cc2)O1)N1CCN(c2ccccc2)CC1	16.5 µM
CC(C)CC#Cc1ccc([C@H]2[C@@H](CO)N3CCCCN(C(=O)Nc4ccccc4)C[C@@H]23)cc1	15.5 µM
CC(C)Oc1ccc(NC(=O)c2nc3c(n2C(C)C)CCN(C(=O)c2ccccc2)C3)cc1	31.9 µM
CC(C)C#Cc1ccc([C@@H]2[C@H]3CN(C(=O)NC4CCCC4)CC(=O)N3[C@H]2CO)cc1	> 39 µM (inactive)
O=S(=O)(c1ccccc1)N(CC(F)(F)F)c1ccc(C(O)(C(F)(F)F)C(F)(F)F)cc1	14.2 µM
COCC#Cc1ccc([C@@H]2[C@H]3CN(C(=O)C4CCCCC4)CC(=O)N3[C@H]2CO)cc1	> 39 µM (inactive)
O=C(Nc1cccc(F)c1)N1CCCCN2[C@H](CO)[C@@H](c3ccc(C#Cc4cccnc4)cc3)[C@H]2C1	23.6 µM
COc1ccc(-c2nc(N3CCC(N4CCCCC4)CC3)c3ccccc3n2)cc1	> 39 µM (inactive)
CCc1c(C)sc2c1CCN(Cc1nc(-c3cc(C)ccc3C)oc1C)C2c1ccccc1 (stereo unspecified)	16.9 µM
Cc1ccc(S(=O)(=O)N2C[C@H](O)COC[C@@H]3O[C@H](CC(=O)NCc4ccc5c(c4)OCO5)CC[C@H]32)cc1	> 39 µM (inactive)
O=S(=O)(c1ccc(-c2ccccc2)cc1)N1C[C@@H]2N[C@H](C1)C2c1ccc(-c2ccncc2)cc1 (stereo partly specified)	16.1 µM
O=C(NC1CCCCC1)N1C[C@@H]2N[C@H](C1)C2c1ccc(-c2ccc(F)cc2)cc1 (stereo partly specified)	23 µM
CCn1c(C2CCCN(C(=O)CCN3CCCCCC3=O)C2)nn(C)c1=O (stereo unspecified)	29.4 µM
CN1c2ccc(-c3ccccc3)cc2[C@@H]2[C@@H](CCN2C(=O)CC2CC2)[C@@H]1CO	25.3 µM
Cc1cccc(S(=O)(=O)N2CC[C@@H]3[C@H](CO)Nc4ccc(-c5ccccc5F)cc4[C@@H]32)c1	17.2 µM
Cc1ccc(S(=O)(=O)Nc2ccc3c(c2)C(=O)N([C@@H](C)CO)C[C@@H](C)[C@H](CN(C)Cc2ccc(C(F)(F)F)cc2)O3)cc1	> 20 µM (inactive)
C=CCNc1nnc(Cl)c2ccccc12	17.8 µM
C[C@@H]1CN(Cc2ccc(F)cc2)CCN1C(=O)COc1ccc(Cl)cc1NC(N)=O	> 39 µM (inactive)

From PubChem BioAssay AID1259420 (Broad Institute, 2018)
